The values that follow come from patent publication US20250375410A1, “COMPOUND FOR PREVENTING OR TREATING NONALCOHOLIC FATTY LIVER DISEASE AND COMPOSITION THEREOF” (SUNWAY BIOTECH CO., LTD., priority 2024, published 2025).

Format in all cases: in vivo, C57BL/6J mice
Assay [1] deals with nonalcoholic fatty liver mice induced by high-fat feed. Briefly: Serum liver function indices AST and ALT in high-fat feed induced nonalcoholic fatty liver mice. The method, then:
(§1) 1. Preparation of the Composition of the Present invention • (1) L008 and H008 groups: The composition is the red yeast rice of the present invention obtained by fermenting rice with the Monascus pilosus of the present invention as described in Embodiment 2. The daily dosage for adults in the L008 and H008 groups is 0.5 g/day and 2 g/day, containing 1.5 mg/day and 6 mg/day of monascinol (a compound having the structure of Formula (I)), respectively. • (2) Msol group: Monascinol (a compound having the structure of Formula (I)), with a daily dosage of 6 mg/day for adults.
(§2) The experiment used 7-week-old male C57BL/6J strain mice purchased from the National Laboratory Animal Center. The initial body weight was about 23 g, with 12 mice per group. They were housed at 60% relative humidity, room temperature 25±1° C., with a 12-hour light cycle (8:00-20:00). The experiment lasted for 22 weeks, during which food and water were provided ad libitum. Body weight, food intake, and water consumption were measured weekly.
(§3) The feeding dosage calculation was based on the experiment initial estimation method published by the U.S. Food and Drug Administration in 2005 (Estimating the maximum safe starting dose in initial clinical trials for therapeutics in adult healthy volunteers). Using a 60 kg adult as the standard, when conducting trials on higher experimental animals, the dosage conversion principle is to use 12.3 times the recommended daily intake per kilogram of human body weight (mg/kg bw/day) as the recommended daily intake per kilogram of mouse body weight. The calculation formula is as follows: […]
Embodiment 4 uses a high-fat feed to induce a nonalcoholic fatty liver animal model. The animal experiment lasted for 22 weeks. […]
A biochemical auto-analyzer (Model Beckman-700, purchased from Fullerton, CA, USA) was used for detection. The items detected were: TC (Total Cholesterol), TG (Triglyceride), AST (Aspartate Aminotransferase) and ALT (Alanine Aminotransferase) activities.

Assay [2] shares this test system. Briefly: Liver weight and liver/body weight ratio in high-fat feed induced nonalcoholic fatty liver mice. The method, then:
as §1, §2, §3
(§4) Embodiment 4 uses a high-fat feed to induce a nonalcoholic fatty liver animal model. The animal experiment lasted for 22 weeks. Animal test feed was prepared according to the formula of Research Diets (New Brunswick, NJ, USA) for D12450B and D12492. The grouping is as follows: • i. ND group: Normal animal group. • ii. HFD group: Control group, nonalcoholic fatty liver mice induced by high-fat feed. • iii. L008 group: Nonalcoholic fatty liver mice induced by high-fat feed and gavaged daily with red yeast rice powder, equivalent to 0.5 g of the red yeast rice of the present invention consumed daily by a 60 kg adult, containing 1.5 mg monascinol (a compound having the structure of Formula (I)). • iv. H008 group: Nonalcoholic fatty liver mice induced by high-fat feed and gavaged daily with red yeast rice powder, equivalent to 2 g of the red yeast rice of the present invention consumed daily by a 60 kg adult, containing 6 mg monascinol (a compound having the structure of Formula (I)). • v. […]

The test system of assay [3] is gut microbiota of nonalcoholic fatty liver mice. Briefly: Analysis of gut microbiota (full-length 16S sequencing) in nonalcoholic fatty liver mice. The following applies: compared with the HFD group; L008, H008 and Msol groups. The method, then: as §4, with “iv.” for “iv. H008 group: Nonalcoholic fatty liver mice induced by high-fat feed and gavaged daily with red yeast rice powder, equivalent to 2 g of the red yeast rice of the present invention consumed daily by a 60 kg adult, containing 6 mg monascinol (a compound having the structure of Formula (I)). • v.”
(1) Extraction of Genomic DNA and PCR Amplification and Purification Total genomic DNA was extracted from samples (QIAamp PowerFecal DNA, Qiagen). DNA concentration was determined using a Qubit 4.0 fluorometer (Thermo Scientific) and adjusted to 1 ng/μL. […] PCR reactions were performed using KAPA HiFi HotStart ReadyMix (Roche): 95° C., 3 minutes; 20-27 cycles (sample-dependent): 95° C., 30 seconds, 57° C., 30 seconds, 72° C., 60 seconds; 72° C. for 5 minutes, and final storage at 4° C. PCR products were monitored on 1% agarose gel. […]

The test system of assay [4] is nonalcoholic fatty liver mice induced by high-fat feed. Briefly: Liver histopathology (H&E staining) assessment in high-fat feed induced nonalcoholic fatty liver mice. As for the experimental part: as §1, §2, §3
Embodiment 4 uses a high-fat feed to induce a nonalcoholic fatty liver animal model. The animal experiment lasted for 22 weeks. Animal test feed was prepared according to the formula of Research Diets (New Brunswick, NJ, USA) for D12450B and D12492. The grouping is as follows: • i. ND group: Normal animal group. • ii. HFD group: Control group, nonalcoholic fatty liver mice induced by high-fat feed. • iii. L008 group: Nonalcoholic fatty liver mice induced by high-fat feed and gavaged daily with red yeast rice powder, equivalent to 0.5 g of the red yeast rice of the present invention consumed daily by a 60 kg adult, containing 1.5 mg monascinol (a compound having the structure of Formula (I)). • iv. H008 group: Nonalcoholic fatty liver mice induced by high-fat feed and gavaged daily with red yeast rice powder, equivalent to 2 g of the red yeast rice of the present invention consumed daily by a 60 kg adult, containing 6 mg monascinol (a compound having the structure of Formula (I)). • v. Msol group: Nonalcoholic fatty liver mice induced by high-fat feed and gavaged daily with monascinol (a compound having the structure of Formula (I)) powder, equivalent to 6 mg of monascinol (a compound having the structure of Formula (I)) powder consumed daily by a 60 kg adult.
In the 22nd week of the experiment, food was withheld for 12-14 hours before blood collection. […] The obtained blood samples were centrifuged at 4° C., 3,000×g for 15 minutes. The upper layer of blood was aliquoted into eppendorf tubes and stored at −80° C. The liver was weighed, and the second largest lobe was preserved in 10% pathological formalin. The remaining liver was washed with 0.9% physiological saline, and along with the kidneys, placed in zipper bags and stored at −80° C.
The liver was fixed in 10% formalin, dehydrated, and embedded in paraffin to make tissue sections. […]

The test system is the same in assay [5]. Briefly: Liver lipid extraction and measurement (TG, TC) in high-fat feed induced nonalcoholic fatty liver mice. The method, then:
as §1, §2, §3
Embodiment 4 uses a high-fat feed to induce a nonalcoholic fatty liver animal model. The animal experiment lasted for 22 weeks. Animal test feed was prepared according to the formula of Research Diets (New Brunswick, NJ, USA) for D12450B and D12492. The grouping is as follows: • i. ND group: Normal animal group. • ii. HFD group: Control group, nonalcoholic fatty liver mice induced by high-fat feed. • iii. […]

The mark [6] stands for this setting: serum, Msol group: monascinol 0.0012 g/kg bw/day by gavage, high-fat diet, 22 weeks, mean ± SD, n = 8.
[7] abbreviates: Msol group: monascinol 0.0012 g/kg bw/day by gavage, high-fat diet, 22 weeks, mean ± SD, n = 8.
Where [8] appears, read: lesion severity grade (0 to 4), Msol group: monascinol 0.0012 g/kg bw/day, high-fat diet, 22 weeks, mean ± SD, n = 8.

Marks after values point to notes of the source that are not given here.

Turning to Monascinol [Msol], in assay [1] (setting [6]), the “ALT Activity” value is 25.3 ± 3.4 ^a U/L and the “AST Activity” value is 60.6 ± 3.7 ^a U/L. The “Effect on serum AST and ALT activities, in words” value in assay [1] (versus HFD group, various doses (L008 and H008 groups) and Monascinol) is “significantly reduced AST and ALT activities”. For the same substance, in assay [2] (setting [7]), the “Liver Weight” value is listed as 1.01 ± 0.06 ^a g and the “Liver/Body Weight” value was 2.85 ± 0.24 ^a %. Also, the “Effect on liver weight, in words” value in assay [2] (versus HFD group, p<0.05, various doses (L008 and H008 groups) and Msol) is listed as “significantly reducing liver weight”. Further, in assay [2] (versus HFD group, various doses (L008 and H008 groups) and Msol), the “Effect on liver/body weight ratio, in words” value was “improving the liver/body weight ratio”. For the same substance, the “Abundance of Blautia and Intestinimonas in the intestine, in words (FIG. 9)” value in assay [3] was “increase the microbial populations of Blautia and Intestinimonas”. Also, in assay [4] (setting [8]), the “Fatty change with macro-vesicles, multifocal” value was 0.3 ± 0.7 ^a; the “Fatty change with micro-vesicles, multifocal” value was 0.1 ± 0.4 ^a; the “Fatty change, general” value is given as 0.3 ± 0.7 ^a. In assay [4] (lesion severity grade (0 to 4), Msol group: monascinol 0.0012 g/kg bw/day, high-fat diet, 22 weeks, n = 8), the “Inflammation, granulomatous, multifocal” value is 0 ^a. In addition, the “Effect on accumulation of liver lipid droplets / fatty infiltration, in words (FIG. 7, Table 6)” value in assay [4] (versus HFD group, p<0.05) was “significantly improved the accumulation of liver lipid droplets and fatty infiltration”. In addition, in assay [5] (setting [7]), the “Liver TC” value was 1.02 ± 0.32 ^ab mg/g and the “Liver TG” value is given as 7.25 ± 0.71 ^a mg/g. For the same substance, in assay [5] (versus HFD group, p<0.05), the “Effect on TC and TG in the liver, in words” value was “effectively reduced the accumulation of TC and TG in the liver”.
